Laboratory results reported in US6124263A, “Treatment of tumors by administration of growth hormone releasing compounds and their antagonists” (Asta Medica AG, priority 1998, dated 2000).
pEC50: −log10 of the molar value. One block for each compound: values may come before it. Numbered stars: 1 amine (or outer) side, 2 acyl side, 3 side chain; on linkers, the order of the positions; unused ones are H or OH. Square brackets hold non-standard residues; d marks the D form. Peptide text beside a SMILES is read from it. Haic = O=C1[C@@H](N[*:1])CCc2cccc3c2N1[C@H](C(=O)[*:2])C3; dTrp(2-Me) = Cc1[nH]c2ccccc2c1C[C@@H](N)C(=O)O

Experiments:
[1] = test system: Human lung carcinoma cells (CaLu1); experiment: Cell growth study (cell count), human lung carcinoma cells; format: cell-based; settings: FIG. 6
Method: (§1) Human lung carcinoma cells (CaLu1), T47D and MDA-MB231, respectively, human oestrogen dependent and oestrogen independent breast cancer cell lines were purchased from the ATCC (Rockville, Md., USA). Cells were routinely cultured in […] flasks at 37° C., 5% CO2 and 95% humidified atmosphere in RPMI supplemented with 10% FCS, penicillin-streptomycin and fungizone. When a subconfluent state was reached, cells were detached from the flasks with trypsin/EDTA. Cell growth studies were carried out as described in P.Cassoni et al., Virchows Archiv, 425, 467-472, 1994. Cells were seeded in triplicate in 24-multiwell plates at a density of 5,000-10,000 cells/ml. Twenty-four hours after plating the medium was changed. Hexarelin or Ala-Hexarelin were added where requested at concentrations ranging from 10^-8 to 10^-6 mol/l. The medium was changed every 48 hours. Cells were counted at 48 and 72 or 96 hours of treatment in a double blind analysis by two independent investigators using a haemocytometer.

[2] = test system: human breast cancer T47D cells; experiment: Cell growth study (cell count), T47D cells; format: cell-based; settings: FIG. 7a
Method: as §1

GHRP receptors = experiment: GHRP receptor assay: 125I-Tyr-Ala-Hexarelin binding to tumor membranes; design: species or system human; settings: for competition with 125I-Tyr-Ala-Hexarelin for the tumoral binding sites (displacement of radiotracer binding): membranes of a non-endocrine carcinoma of lung origin, FIG. 3
Method: Surgical tumor specimens were collected from the Department of Biomedical Sciences and Human Oncology (Division of Pathology) of the University of Turin. A tumor fragment adjacent to that used for histopathological diagnosis was immediately frozen at -80° C. and stored for 2 to 60 months until further processed for binding studies. Samples of 13 invasive breast carcinoma (10 ductal and 3 lobular), 14 non-endocrine lung carcinomas (5 squamous cell and 9 adenocarcinomas), 11 endocrine tumors of the lung, 9 endocrine tumors of the pancreas and 12 thyroid carcinomas (7 of follicular origin and 5 of medullary origin) were used. Non-neoplastic normal tissues of the corresponding organs were also analysed in parallel with the individual tumors.
GHRP receptors were measured on tumor membranes as described in G. Muccioli et al., Journal of Endocrinology, 157, 99-106, 1998, using ^125 I-Tyr-Ala-Hexarelin as a ligand. Specific binding was calculated as the difference between binding in the absence and in the presence of excess unlabelled Tyr-Ala-Hexarelin and expressed as a percentage of the radioactivity added. Saturation and competition binding studies were analyzed with the GraphPAD Prism 2 program (GraphPAD Software, San Diego, Calif., USA).

[3] = test system: Human lung carcinoma cells (CaLu1); format: cell-based; settings: for effect on basal and EGF-stimulated 3H-thymidine incorporation: 10-6 mol/l compound, 20 h + 4 h incubation, FIG. 4; for pEC50: 3 h
Method: Human lung carcinoma cells (CaLu1), T47D and MDA-MB231, respectively, human oestrogen dependent and oestrogen independent breast cancer cell lines were purchased from the ATCC (Rockville, Md., USA). Cells were routinely cultured in […] flasks at 37° C., 5% CO2 and 95% humidified atmosphere in RPMI supplemented with 10% FCS, penicillin-streptomycin and fungizone. When a subconfluent state was reached, cells were detached from the flasks with trypsin/EDTA. DNA synthesis was evaluated by ^3 H-thymidine incorporation as described in G. Muccioli et al., Journal of Endocrinology, 153, 365-371, 1997. […] After incubation for 20 hours, ^3 H-thymidine was added and incubation was continued for a further 4 hours. The reaction was halted and the cells were harvested onto glass-fiber filter strips. Incorporation of ^3 H-thymidine was measured in a scintillation counter.

[4] = test system: human breast cancer MDA-MB231 cells; experiment: Cell growth study (cell count), MDA-MB231 cells; format: cell-based; settings: FIG. 8a
Method: as §1

[5] = 10^-7 mol/l and 10^-6 mol/l, any time point tested

Compound: GHRH: Human GHRH (GHRH 1-44) purchased from Bachem
competition with 125I-Tyr-Ala-Hexarelin for the tumoral binding sites (displacement of radiotracer binding) (GHRP receptors): no competition

Compound: NCCCC[C@H](NC(=O)[C@@H](Cc1ccccc1)NC(=O)[C@H](Cc1c[nH]c2ccccc12)NC(=O)[C@@H](CCCCN)NC(=O)[C@@H](Cc1c[nH]c2ccccc12)NC(=O)[C@@H](N)Cc1c[nH]cn1)C(N)=O [(D-Lys)3 -GHRP6, His-D-Trp-D-Lys-Trp-D-Phe-Lys-NH2] (H-H[dW][dK]W[dF]K-NH2)
pEC50 [3]: 7.05

Compound: C[C@H](N)C(=O)NCC(=O)N[C@H]1CSSC[C@@H](C(=O)O)NC(=O)[C@H](CO)NC(=O)[C@H]([C@@H](C)O)NC(=O)[C@H](Cc2ccccc2)NC(=O)[C@H]([C@@H](C)O)NC(=O)[C@H](CCCCN)NC(=O)[C@H](Cc2c[nH]c3ccccc23)NC(=O)[C@H](Cc2ccccc2)NC(=O)[C@H](Cc2ccccc2)NC(=O)[C@H](CC(N)=O)NC(=O)[C@H](CCCCN)NC1=O [somatostatin]
competition with 125I-Tyr-Ala-Hexarelin for the tumoral binding sites (displacement of radiotracer binding) (GHRP receptors): no competition

Compound: Cc1[nH]c2ccccc2c1C[C@@H](NC(=O)[C@@H]1Cc2cccc3c2N1C(=O)[C@@H](N)CC3)C(=O)N[C@H](CCCCN)C(=O)N[C@@H](Cc1c[nH]c2ccccc12)C(=O)N[C@H](Cc1ccccc1)C(=O)N[C@@H](CCCCN)C(N)=O [EP80317, HAIC-D-Mrp-D-Lys-Trp-D-Phe-Lys-NH2] (Haic-[dTrp(2-Me)][dK]W[dF]K-NH2)
pEC50 [3]: 7.25

Compound: Cc1[nH]c2ccccc2c1C[C@@H](NC(=O)[C@H](Cc1c[nH]cn1)NC(=O)[C@H](C)N)C(=O)N[C@@H](C)C(=O)N[C@@H](Cc1c[nH]c2ccccc12)C(=O)N[C@H](Cc1ccccc1)C(=O)N[C@@H](CCCCN)C(N)=O [Ala-Hexarelin, Ala-His-D-Mrp-Ala-Trp-D-Phe-Lys-NH2] (H-AH[dTrp(2-Me)]AW[dF]K-NH2)
pEC50 [3]: 7.00

More lines, main results first:

competition with 125I-Tyr-Ala-Hexarelin for the tumoral binding sites (displacement of radiotracer binding) (GHRP receptors): displaced in a dose-dependent fashion | pEC50 [3]: 7.10
Compound: Cc1[nH]c2ccccc2c1C[C@@H](NC(=O)[C@@H](N)Cc1cnc[nH]1)C(=O)N[C@@H](C)C(=O)N[C@@H](Cc1c[nH]c2ccccc12)C(=O)N[C@H](Cc1ccccc1)C(=O)N[C@@H](CCCCN)C(N)=O [Hexarelin, His-D-Mrp-Ala-Trp-D-Phe-Lys-NH2] (H-H[dTrp(2-Me)]AW[dF]K-NH2)
decrease in cell number compared with control at higher concentrations [1, 5]: further increased | decrease in cell number compared with control ([1]; 10^-8 mol/l, after 96 hours): -47% | decrease in cell number compared with control at higher concentrations [2, 5]: further increased | decrease in cell number compared with control ([2]; 10^-8 mol/l, after 96 hours): -54% | effect on basal and EGF-stimulated 3H-thymidine incorporation ([3]; EGF 1 ng/ml): able to inhibit both basal and the EGF-stimulated | inhibition of the proliferative effect of EGF with increasing concentrations ([3]; 10^-8 to 10^-6 mol/l, EGF 1 ng/ml, FIG. 5): inhibited in a dose-dependent fashion | decrease in cell number compared with control at higher concentrations [4, 5]: further increased | decrease in cell number compared with control ([4]; 10^-8 mol/l, after 72 hours): -33%

pEC50 [3]: 7.19
Compound: Cc1[nH]c2ccccc2c1C[C@@H](NC(=O)[C@H](Cc1c[nH]cn1)NC(=O)[C@H](C)NC(=O)[C@@H](N)Cc1ccc(O)cc1)C(=O)N[C@@H](C)C(=O)N[C@@H](Cc1c[nH]c2ccccc12)C(=O)N[C@H](Cc1ccccc1)C(=O)N[C@@H](CCCCN)C(N)=O [Tyr-Ala-Hexarelin, Tyr-Ala-His-D-Mrp-Ala-Trp-D-Phe-Lys-NH2] (H-YAH[dTrp(2-Me)]AW[dF]K-NH2)

competition with 125I-Tyr-Ala-Hexarelin for the tumoral binding sites (displacement of radiotracer binding) (GHRP receptors): negligible displacement
Compound: CC(C)(N)C(=O)N[C@H](COCc1ccccc1)C(=O)N1CCC2(CC1)CN(S(C)(=O)=O)c1ccccc12 [MK0677, reference compound]
effect on basal and EGF-stimulated 3H-thymidine incorporation ([3]; EGF 1 ng/ml): slight inhibition

binding of 125I-Tyr-Ala-Hexarelin to tumor membranes as a function of radioligand concentration (saturation, Scatchard) (GHRP receptors; non-endocrine carcinoma of lung origin, FIG. 2): saturable specific binding
Compound: ^125 I-Tyr-Ala-His-D-Mrp-Ala-Trp-D-Phe-Lys-NH2 [^125 I-Tyr-Ala-Hexarelin]
